In patent EP0199291A1 (priority 1985, dated 1986):
Where two headings read alike, the source gives them in different places.

How the values were obtained:
TNP-C3H = conditions: for cytotoxische Aktivität (% 51Cr-Freisetzung): Stimulans und Target TNP-C3H, 1 x 10^-2 mol/l, 5 days
Method: (§1) 20 Millionen Responderzellen (üblicherweise C3H Milzzellen)wurden mit 1×10^6 bestrahlten (1500 rad) allogenen oder trinitrophenylierten syngenen Stimulatorzellen in einem Gesamtvolumen von 4,5 ml Kulturmedium (RPMI 1640, GIBCO Medium supplementiert mit 10mM L-Gutamin (GIBCO), Streptomycin/Penicillin (GIBCO), Streptomycin/ Penicillin (GIBCO; 100 units/ml), 0,5 % HEPES (GIBCO), 10% fötalem Kälberserum (GIBCO) und 3×10^-5 Mol/l 2-Mercaptoäthanol) 5 Tage bei 37°C in 5% CO2 incubiert. Responder-und Stimulatorzellen waren Milzzellen.
(§2) Die Kulturen wurden nach 5 Tagen auf cytotoxische Aktivität gegen Con A-aktivierte allogene oder trinitrophenylierte syngene Milzlynphoblasten in einem 4-Stunden 51Cr-Release assay in bekanntem Weise getestet.
(§3) Der Effekt in vitro (mittlere und rechte Zeichnung der Fig. 1) wurde wie folgt bestimmt: • C3H Milzzellen (2 x 10^7) wurden mit 1 x 10^6 bestrahlten und Trinitrophenylen-behandelten C3H Milzzellen (Mitte) oder 1 x 10^6 bestrahlte C57BL/6 Milzzellen (rechts) und mit den angegebenen Endkonzentrationen von Ornithin in 4,5 ml Kulturen 5 Tage inkubiert. Die cytotoxische Aktivität gegen die entsprechenden Targetzellen wurde nach 5 Tagen getestet.
(§4) C3H Milzzellen (2 x 10^7) wurden mit 1 x 10^6 bestrahlten und Trinitrophenylen-behandelten C3H Milzzellen (links) oder 1 x 10^6 bestrahlten C57BL/6 Milzzellen (rechts) in 4,5 ml Kulturen 5 Tage inkubiert. […] Die Abszisse zeigt die Endkonzentration von Ornithin in der Kultur. Die cytotoxische Aktivität gegen die entsprechenden Targetze1len wurde nach 5 Tagen bei Angreifer: Ziel-Zellen-Verhältnissen von 25:1, 5:1 und 1:1 untersucht. Figur 3 zeigt die relative cytotoxische Aktivität beim Angreifer: Ziel-Zellen-Verhältnis 25:1. (Die Kontrollantwort ohne Ornithin zeigte 54% (links) bzw. 50% (rechts) ^51Cr-release).
(§5) Die Ergebnisse geben die cytotoxische Aktivität (% ^51Cr-Freisetzung) gegen homologe Targetzellen nach 5 Tagen bei Angreifer:Targetzel len-Verältnissen von 25:1, 5:1 und 1:1 an.

C57BL/6 = conditions: Stimulans und Target C57BL/6, 1 x 10^-2 mol/l, 5 days
Method: as §1, §2, §3, §4, §5

[1] = test system: con-A-aktivierte C3H Milzzellen; conditions: 9 x 10^-3 mol/l; Con A 5 µg/ml; 24 h (Fig. 5)
Method: (§6) Die IL 2 Titer wurden mit der IL 2 abhängigen W-2 T-Zelllinie in bekannter Weise bestimmt.
(§7) Die resultierenden Überstände wurden dann durch Zentrifugation isoliert und auf Interleukin-2 und Interferon- Aktivität getestet, wie im Methodenteil beschrieben.
Ansteigende Konzentrationen von Ornithin wurden Kulturen von con-A-aktivierten Konzentrationen von Ornithin C3H Milzzellen (10^7 Zellen + 5 µg con-A pro ml) zugesetzt. Die erhaltenen Überstände wurden 24 h später isoliert und auf Interleukin-2 und Interferonaktivität getestet.

[2] = test system: IL 2 abhängige W-2 T-Zelllinie; conditions: control solutions with increasing amounts in culture medium
Method: as §6
Ansteigende Konzentrationen von Ornithin wurden Kulturen von con-A-aktivierten Konzentrationen von Ornithin C3H Milzzellen (10^7 Zellen + 5 µg con-A pro ml) zugesetzt. Die erhaltenen Überstände wurden 24 h später isoliert und auf Interleukin-2 und Interferonaktivität getestet. […] C3H Milzzellkulturen mit l ug/ml con-A sowie allogene "Genischte-Lymphozyten-Kulturen" mit 10^7 nicht-bestrahltenC3H Milzzellen' plus 10^7 nicht- bestrahltenC57BL/6 Milzzellen wurden eben- falls mit steigenden Konzentrationen von Ornithin angesetzt.

[3] = test system: PMA-aktivierte EL-4 Thymomzellen; conditions: same concentrations as in Fig. 5
Method: as §6
Die Überstände werden aus einer IL-2 produzierenden EL-4 Thymom-Sublinie nach Induktion mit Phorbolmyristinacetat (PMA) in bekannter Weise erhalten. Es wurden 10^6 EL-4 Zellen pro ml zusammen mit 10 ng/ml PMA (SIGMA) 48 h inkubiert. Die Überstände wurden gesammelt und bei -20°C gefroren gelagert.
as §7

[4] = Angreifer:Targetzellen 1:1, control without additive 16,3
[5] = Angreifer:Targetzellen 5:1, control without additive 32,0
[6] = Angreifer:Targetzellen 25:1, control without additive 54,9
[7] = summary statement, see Tabelle I
[8] = Angreifer:Targetzellen 1:1, control without additive 4,8
[9] = Angreifer:Targetzellen 5:1, control without additive 17,7
[10] = Angreifer:Targetzellen 25:1, control without additive 33,5

| Structure (SMILES) | Hemmwirkung auf die Aktivierung cytotoxischer T-Lymphozyten (TNP-C3H) | cytotoxische Aktivität (% 51Cr-Freisetzung) (TNP-C3H; [4]) | cytotoxische Aktivität (% 51Cr-Freisetzung) (TNP-C3H; [5]) | cytotoxische Aktivität (% 51Cr-Freisetzung) (TNP-C3H; [6]) | Hemmwirkung auf die Aktivierung cytotoxischer T-Lymphozyten (TNP-C3H; [7]) | cytotoxische Aktivität (% 51Cr-Freisetzung) (C57BL/6; [8]) | cytotoxische Aktivität (% 51Cr-Freisetzung) (C57BL/6; [9]) | cytotoxische Aktivität (% 51Cr-Freisetzung) (C57BL/6; [10]) | further results |
| --- | --- | --- | --- | --- | --- | --- | --- | --- | --- |
| C[C@H](N)C(=O)O [L-Alanin] | nicht zu beobachten |  |  |  |  |  |  |  |  |
| N[C@@H](Cc1c[nH]cn1)C(=O)O [L-Hystidin, L-Histidin] |  | 11,1% | 27,8% | 48,5% | nicht zu beobachten | 5,1% | 11,4% | 24,5% |  |
| NCCCC[C@H](N)C(=O)O [L-Lysin] |  | 21,5% | 39,9% | 60,7% | nicht zu beobachten | 9,0% | 19,1% | 41,7% |  |
| NCCC[C@H](N)C(=O)O [L-Ornithin] |  |  |  |  |  |  |  |  | Effekt auf die Produktion von IL-2 [1]: keinen wesentlichen Effekt; Interleukin-2-Aktivität (of the substance itself) [2]: keine Interleukin-2 oder Interferon-Aktivität; Interleukin-2-Produktion von PMA-aktivierten EL-4 Thymomzellen [3]: nicht supprimiert |
| NCCCCN [Putrescin] | nicht zu beobachten |  |  |  |  |  |  |  |  |
